O=Cc1cccc([N+](=O)[O-])c1
Details | solubility (mole fraction)
in DMF, 273.15 K | 0.324
in DMF, 275.65 K | 0.347
in DMF, 278.15 K | 0.368
in DMF, 280.65 K | 0.393
in DMF, 283.15 K | 0.419
in DMF, 285.65 K | 0.447
in DMF, 288.15 K | 0.472
in DMF, 290.65 K | 0.503
in DMF, 293.15 K | 0.528
in DMF, 295.65 K | 0.561
in DMF, 298.15 K | 0.594
in DMF, 300.65 K | 0.627
in DMF, 303.15 K | 0.66
in acetic acid, 290.65 K | 0.159
in acetic acid, 293.15 K | 0.182
in acetic acid, 295.65 K | 0.206
in acetic acid, 298.15 K | 0.235
in acetic acid, 300.65 K | 0.267
in acetic acid, 303.15 K | 0.304
in acetone, 273.15 K | 0.164
in acetone, 275.65 K | 0.184
in acetone, 278.15 K | 0.206
in acetone, 280.65 K | 0.231
in acetone, 283.15 K | 0.258
in acetone, 285.65 K | 0.289
in acetone, 288.15 K | 0.322
in acetone, 290.65 K | 0.359
in acetone, 293.15 K | 0.401
in acetone, 295.65 K | 0.445
in acetone, 298.15 K | 0.487
in acetone, 300.65 K | 0.534
in acetone, 303.15 K | 0.585
in acetonitrile, 273.15 K | 0.165
in acetonitrile, 275.65 K | 0.183
in acetonitrile, 278.15 K | 0.204
in acetonitrile, 280.65 K | 0.226
in acetonitrile, 283.15 K | 0.251
in acetonitrile, 285.65 K | 0.277
in acetonitrile, 288.15 K | 0.307
in acetonitrile, 290.65 K | 0.338
in acetonitrile, 293.15 K | 0.371
in acetonitrile, 295.65 K | 0.409
in acetonitrile, 298.15 K | 0.449
in acetonitrile, 300.65 K | 0.49
in acetonitrile, 303.15 K | 0.532
in cyclohexane, 283.15 K | 0.00147
in cyclohexane, 285.65 K | 0.00175
in cyclohexane, 288.15 K | 0.00204
in cyclohexane, 290.65 K | 0.0024
in cyclohexane, 293.15 K | 0.00283
in cyclohexane, 295.65 K | 0.00334
in cyclohexane, 298.15 K | 0.00394
in cyclohexane, 300.65 K | 0.00456
in cyclohexane, 303.15 K | 0.0053
in ethanol, 273.15 K | 0.0358
in ethanol, 275.65 K | 0.0416
in ethanol, 278.15 K | 0.048
in ethanol, 280.65 K | 0.0555
in ethanol, 283.15 K | 0.0637
in ethanol, 285.65 K | 0.0736
in ethanol, 288.15 K | 0.0844
in ethanol, 290.65 K | 0.0959
in ethanol, 293.15 K | 0.109
in ethanol, 295.65 K | 0.125
in ethanol, 298.15 K | 0.141
in ethanol, 300.65 K | 0.161
in ethanol, 303.15 K | 0.183
in ethyl acetate, 273.15 K | 0.146
in ethyl acetate, 275.65 K | 0.164
in ethyl acetate, 278.15 K | 0.185
in ethyl acetate, 280.65 K | 0.206
in ethyl acetate, 283.15 K | 0.229
in ethyl acetate, 285.65 K | 0.256
in ethyl acetate, 288.15 K | 0.285
in ethyl acetate, 290.65 K | 0.316
in ethyl acetate, 293.15 K | 0.348
in ethyl acetate, 295.65 K | 0.385
in ethyl acetate, 298.15 K | 0.425
in ethyl acetate, 300.65 K | 0.465
in ethyl acetate, 303.15 K | 0.511
in isopropanol, 273.15 K | 0.00629
in isopropanol, 275.65 K | 0.00735
in isopropanol, 278.15 K | 0.0086
in isopropanol, 280.65 K | 0.00997
in isopropanol, 283.15 K | 0.0115
in isopropanol, 285.65 K | 0.0133
in isopropanol, 288.15 K | 0.0153
in isopropanol, 290.65 K | 0.0176
in isopropanol, 293.15 K | 0.0203
in isopropanol, 295.65 K | 0.0232
in isopropanol, 298.15 K | 0.0267
in isopropanol, 300.65 K | 0.0305
in isopropanol, 303.15 K | 0.035
in methanol, 273.15 K | 0.0889
in methanol, 275.65 K | 0.103
in methanol, 278.15 K | 0.118
in methanol, 280.65 K | 0.136
in methanol, 283.15 K | 0.156
in methanol, 285.65 K | 0.178
in methanol, 288.15 K | 0.203
in methanol, 290.65 K | 0.23
in methanol, 293.15 K | 0.261
in methanol, 295.65 K | 0.295
in methanol, 298.15 K | 0.332
in methanol, 300.65 K | 0.373
in methanol, 303.15 K | 0.419
in n-butanol, 273.15 K | 0.0206
in n-butanol, 275.65 K | 0.0235
in n-butanol, 278.15 K | 0.0274
in n-butanol, 280.65 K | 0.0314
in n-butanol, 283.15 K | 0.0357
in n-butanol, 285.65 K | 0.041
in n-butanol, 288.15 K | 0.0466
in n-butanol, 290.65 K | 0.0529
in n-butanol, 293.15 K | 0.0596
in n-butanol, 295.65 K | 0.0677
in n-butanol, 298.15 K | 0.0764
in n-butanol, 300.65 K | 0.086
in n-butanol, 303.15 K | 0.0973
in n-propanol, 273.15 K | 0.0254
in n-propanol, 275.65 K | 0.0293
in n-propanol, 278.15 K | 0.0338
in n-propanol, 280.65 K | 0.0385
in n-propanol, 283.15 K | 0.0442
in n-propanol, 285.65 K | 0.0505
in n-propanol, 288.15 K | 0.0575
in n-propanol, 290.65 K | 0.0648
in n-propanol, 293.15 K | 0.0729
in n-propanol, 295.65 K | 0.0833
in n-propanol, 298.15 K | 0.0942
in n-propanol, 300.65 K | 0.106
in n-propanol, 303.152 K | 0.12
in toluene, 273.15 K | 0.0957
in toluene, 275.65 K | 0.11
in toluene, 278.15 K | 0.126
in toluene, 280.65 K | 0.144
in toluene, 283.15 K | 0.167
in toluene, 285.65 K | 0.188
in toluene, 288.15 K | 0.215
in toluene, 290.65 K | 0.245
in toluene, 293.15 K | 0.276
in toluene, 295.65 K | 0.31
in toluene, 298.15 K | 0.347
in toluene, 300.65 K | 0.385
in toluene, 303.15 K | 0.428

— BigSolDB 2.1
